Assay results from patent US12606546B2, “Small molecule inhibitors of calcium channel activity and uses thereof” (Arizona Board of Regents on Behalf of the University of …, priority 2020, dated 2026).
Where two headings read alike, the source gives them in different places.

Experiments:
[1] = system: high voltage activated calcium channels; test: Fura-2AM calcium imaging, 90 mM KCl-evoked Ca2+ influx in DRG neurons; conditions: separated enantiomers, data not shown
[2] = molecular target: T1, CaV3.3 (Homo sapiens, UniProt Q9P0X4); test: Whole-cell patch clamp in HEK293T cells transiently expressing CaV3.3; assay type: cell-based; conditions: for effect on CaV3.3 mediated currents: 50 μM
T1 construct: expressed in transfected cells; host or cells: HEK293T
Description: (§1) Human embryonic kidney HEK293T cells were cultured in DMEM supplemented with 10% fetal bovine serum and 1% penicillin/streptomycin sulfate, maintained in standard conditions (5% CO2, 37° C., saturated humidity). Cells were transfected with 2 μg of either of the channel cDNAs using Lipofectamine 2000 when cell confluence reached 70-90%. Four to six hours after transfection, cells were seeded onto poly-l-lysine-coated coverslips. Positively transfected cells were indicated by the fluorescence of co-transfected enhanced green fluorescent protein (0.2 μg). All the experiments were performed 36 hours after cell transfection.
(§2) For electrophysiological recording, the external solution contained (in mM): 105 CsCl, TEA-Cl, 2 CaCl2), 1 MgCl2, and 10 glucose (pH 7.4 adjusted with CsOH, and mOsm/L=295-305). The internal solution consisted of (in mM): 120 CsMeSO4, 11 EGTA, 2 Mg-ATP, and HEPES (pH 7.4 adjusted with CsOH, and mOsm/L=295-305). All experiments were conducted at room temperature (22-24° C.). The T-type calcium currents were elicited by a depolarization to −20 or −10 mV for 200-millisecond from a hold potential of −90 mV. Data were collected by the Patchmaster software in a HEKA EPC-10 USB patch-clamp system. Voltage errors were minimized by using 80% series resistance compensation. The capacitance artifact was canceled by using the computer-controlled circuitry of the patch-clamp amplifier. The concentration-response curves of the test compounds on CaV3 channels were fitted to a Hill equation to estimate the potency of the compounds (IC50).

[3] = system: total calcium current in small- to medium-sized DRG neurons; test: Whole-cell patch clamp of total Ca2+ currents in DRG neurons; assay type: cell-based, rat; conditions: for Activation V1/2 / Activation k (slope factor) / Inactivation V1/2 / Inactivation k (slope factor): Boltzmann fit, mean ± SEM; for peak calcium current density: overnight (DMSO −96.91±12.39); for reduction in Ca2+ currents at peak current density: overnight, compared to 0.1% DMSO
Description: Recordings were obtained from acutely dissociated DRG neurons as described in Bellampalli et al. Patch-clamp recordings were performed at room temperature (22-24° C.). Currents were recorded using an EPC 10 Amplifier-HEKA (HEKA Elektronik, Ludwigshafen, Germany) linked to a computer with Patchmaster software. DRG neurons were incubated overnight (˜16-24 h) with 20 μM of 3-25-R and 3-14-3-S.
For total calcium current (ICa^2+) recordings, the external solution consisted of the following (in mM): 110 N-methyl-D-glucamine, 10 BaCl2, 30 TEA-Cl, 10 HEPES, 10 glucose, 0.001 TTX (pH 7.29 adjusted with NaOH, and mOsm/L=310). Patch pipettes were filled with an internal solution containing (in mM): 150 […], 10 HEPES, 5 Mg-ATP, and 5 BAPTA, (pH 7.24 adjusted with CsOH, and from a holding potential of −90 mV to obtain the current-voltage (I-V) relation. Normalization of currents to each cell's capacitance (pF) was performed to allow for collection of current density data. For I-V curves, functions were fitted to data using a non-linear least squares analysis. I-V curves were fitted using double Boltzmann functions: f=a+g1/(1+exp((x−V1/21)/k1))+g2/(1+exp(−(x−V1/22)/k2)) where x is the prepulse potential, V1/2 is the mid-point potential and k is the corresponding slope factor for single Boltzmann functions. Double Boltzmann fits were used to describe the shape of the curve, not to imply the existence of separate channel populations. Numbers 1 and 2 simply indicate first and second mid-points; a along with g are fitting parameters.
Activation curves were obtained from the I-V curves by dividing the peak current at each depolarizing step by the driving force according to the equation: G=I/(Vmem−Erev), where I is the peak current, Vmem is the membrane potential and Erev is the reversal potential. The conductance (G) was normalized against the maximum conductance (Gmax). Steady-state inactivation (SSI) curves were obtained by applying an H-infinity protocol that consisted of 1.5-seconds conditioning pre-pulses from −100 to +30 mV in 10-mV increments followed by a 20-millisecond test pulse to +10 mV. Inactivation curves were obtained by dividing the peak current recorded at the test pulse by the maximum current (Imax). Activation and SSI curves were fitted with the Boltzmann equation.

[4] = system: rats; test: ALGOGram: oxaliplatin-induced neuropathy (paw immersion test); assay type: in vivo, rat; conditions: 0.4 μg/μl i.t., 120 min after treatment, n=3
Description: (§3) The analgesic profile of 3-14-3-S was analyzed by an in vivo screening tool, ALGOGram™ (ANS Biotech, Riom, France). This platform allowed for obtaining information about the effects of compounds in 5 different pain areas (Acute and tonic pain, inflammatory pain, neuropathic pain, postoperative pain and visceral pain), by comparing their activity on a battery of 10 validated behavioral pain models with an ANS Biotech reference historical database (Table 1). Assessment of the efficacy, and analgesic effects of a single administration (0.4 μg/μl, i.t.) 3-14-3-S was analyzed in the rat models of. Tail flick test in healthy rats, paw pressure test in healthy rats, acetic acid-induced writhing, formalin test, Bennett model of peripheral mononeuropathy, oxaliplatin-induced neuropathy, carrageenan-induced mechanical hyperalgesia, kaolin-induced arthritis, Brennan model of incisional pain; and trinitrobenzene sulfonic acid (TNBS)-induced visceral hypersensitivity (Table 2).
(§4) Testing: 120 min after treatment. n=4/model/test (excepted for 3-14-3-S-treated group in Oxaliplatin model n=3). Results are expressed for each group as a percentage of activity calculated from the mean value of the vehicle-treated animals and compared to naïve animals, control paw or cut-off value, depending on the test (from the ANS Biotech historical database). Ligand Docking

[5] = system: rats; test: ALGOGram: carrageenan-induced mechanical hyperalgesia (paw pressure test); assay type: in vivo, rat; conditions: 0.4 μg/μl i.t., 120 min after treatment
Description: as §3, §4

[6] = system: rats; test: ALGOGram: acetic acid test (abdominal cramps); assay type: in vivo, rat; conditions: 0.4 μg/μl i.t., 120 min after treatment
Description: as §3, §4

[7] = molecular target: T2, CaV3.1 (Homo sapiens, UniProt O43497); test: Whole-cell patch clamp in HEK293T cells transiently expressing CaV3.1; assay type: cell-based; conditions: for effect on CaV3.1 mediated currents: 50 μM
T2 construct: expressed in transfected cells; host or cells: HEK293T
T2 sequence (O43497 whole entry): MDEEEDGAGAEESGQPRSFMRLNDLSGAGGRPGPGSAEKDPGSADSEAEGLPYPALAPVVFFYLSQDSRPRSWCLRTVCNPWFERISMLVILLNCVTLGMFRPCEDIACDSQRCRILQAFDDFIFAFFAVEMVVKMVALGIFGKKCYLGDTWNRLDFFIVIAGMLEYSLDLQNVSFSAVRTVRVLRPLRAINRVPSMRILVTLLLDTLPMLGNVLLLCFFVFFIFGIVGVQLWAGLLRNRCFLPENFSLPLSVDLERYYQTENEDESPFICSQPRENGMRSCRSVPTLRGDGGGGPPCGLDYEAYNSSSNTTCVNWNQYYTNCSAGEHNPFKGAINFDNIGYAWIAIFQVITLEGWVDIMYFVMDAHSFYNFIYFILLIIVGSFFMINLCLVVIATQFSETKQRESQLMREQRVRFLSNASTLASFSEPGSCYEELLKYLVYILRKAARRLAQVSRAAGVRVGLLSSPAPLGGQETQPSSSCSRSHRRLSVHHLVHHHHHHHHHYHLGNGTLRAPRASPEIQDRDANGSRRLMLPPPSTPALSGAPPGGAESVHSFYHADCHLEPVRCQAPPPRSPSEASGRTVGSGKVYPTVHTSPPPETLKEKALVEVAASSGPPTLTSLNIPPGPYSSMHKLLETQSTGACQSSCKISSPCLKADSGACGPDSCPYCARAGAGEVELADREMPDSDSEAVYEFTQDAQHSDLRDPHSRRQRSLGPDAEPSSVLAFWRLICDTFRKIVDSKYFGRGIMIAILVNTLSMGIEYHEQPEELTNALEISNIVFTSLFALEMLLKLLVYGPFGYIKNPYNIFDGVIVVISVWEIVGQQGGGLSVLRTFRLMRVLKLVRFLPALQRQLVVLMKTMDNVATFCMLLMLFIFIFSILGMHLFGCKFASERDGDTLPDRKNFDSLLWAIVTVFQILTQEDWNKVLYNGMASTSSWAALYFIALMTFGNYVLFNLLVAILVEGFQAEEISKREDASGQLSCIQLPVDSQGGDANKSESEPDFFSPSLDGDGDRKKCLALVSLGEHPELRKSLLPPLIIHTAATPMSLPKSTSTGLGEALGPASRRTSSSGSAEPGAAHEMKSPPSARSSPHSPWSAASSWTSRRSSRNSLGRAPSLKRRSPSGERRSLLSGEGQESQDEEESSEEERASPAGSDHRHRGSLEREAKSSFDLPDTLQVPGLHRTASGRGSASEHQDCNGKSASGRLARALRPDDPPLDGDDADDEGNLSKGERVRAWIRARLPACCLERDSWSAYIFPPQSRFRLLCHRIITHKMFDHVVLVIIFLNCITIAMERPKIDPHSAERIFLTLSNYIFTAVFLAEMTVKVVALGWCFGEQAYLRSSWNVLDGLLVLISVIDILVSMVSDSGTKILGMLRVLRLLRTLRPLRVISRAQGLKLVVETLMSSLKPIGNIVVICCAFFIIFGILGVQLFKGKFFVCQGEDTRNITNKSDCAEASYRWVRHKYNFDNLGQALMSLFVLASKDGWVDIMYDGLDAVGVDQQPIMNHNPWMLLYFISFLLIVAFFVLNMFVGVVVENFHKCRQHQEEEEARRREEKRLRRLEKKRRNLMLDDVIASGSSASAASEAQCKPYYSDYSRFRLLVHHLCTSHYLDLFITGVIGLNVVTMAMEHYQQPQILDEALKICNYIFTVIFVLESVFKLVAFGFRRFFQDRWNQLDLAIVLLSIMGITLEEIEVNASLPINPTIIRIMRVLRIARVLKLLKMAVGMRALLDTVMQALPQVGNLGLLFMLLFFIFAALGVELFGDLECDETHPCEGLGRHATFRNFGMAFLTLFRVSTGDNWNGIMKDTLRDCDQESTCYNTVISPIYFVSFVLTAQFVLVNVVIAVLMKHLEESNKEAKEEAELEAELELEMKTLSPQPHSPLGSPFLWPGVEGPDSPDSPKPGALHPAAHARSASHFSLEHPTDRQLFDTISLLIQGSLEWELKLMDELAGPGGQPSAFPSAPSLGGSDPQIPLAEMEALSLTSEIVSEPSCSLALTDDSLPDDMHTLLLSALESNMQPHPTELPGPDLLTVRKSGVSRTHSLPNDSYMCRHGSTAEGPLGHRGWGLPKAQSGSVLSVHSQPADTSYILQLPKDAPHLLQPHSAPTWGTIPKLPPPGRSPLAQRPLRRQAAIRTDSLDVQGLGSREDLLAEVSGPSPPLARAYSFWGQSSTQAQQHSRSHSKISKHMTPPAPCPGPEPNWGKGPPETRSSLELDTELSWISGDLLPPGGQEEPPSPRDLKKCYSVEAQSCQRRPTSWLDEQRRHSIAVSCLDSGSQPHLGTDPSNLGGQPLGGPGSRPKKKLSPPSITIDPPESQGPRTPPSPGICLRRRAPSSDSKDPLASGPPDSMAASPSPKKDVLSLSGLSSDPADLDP
Description: as §1, §2

[8] = system: healthy rats; test: ALGOGram: healthy rats, tail flick test; assay type: in vivo, rat; conditions: 0.4 μg/μl i.t., 120 min after treatment
Description: as §3, §4

[9] = system: healthy rats; test: ALGOGram: healthy rats, paw pressure test; assay type: in vivo, rat; conditions: 0.4 μg/μl i.t., 120 min after treatment
Description: as §3, §4

[10] = molecular target: T3, CaV3.2 (Homo sapiens, UniProt O95180); test: Whole-cell patch clamp in HEK293T cells transiently expressing CaV3.2; assay type: cell-based; conditions: for effect on CaV3.2 mediated currents: 50 μM
T3 construct: expressed in transfected cells; host or cells: HEK293T
T3 sequence (O95180 whole entry): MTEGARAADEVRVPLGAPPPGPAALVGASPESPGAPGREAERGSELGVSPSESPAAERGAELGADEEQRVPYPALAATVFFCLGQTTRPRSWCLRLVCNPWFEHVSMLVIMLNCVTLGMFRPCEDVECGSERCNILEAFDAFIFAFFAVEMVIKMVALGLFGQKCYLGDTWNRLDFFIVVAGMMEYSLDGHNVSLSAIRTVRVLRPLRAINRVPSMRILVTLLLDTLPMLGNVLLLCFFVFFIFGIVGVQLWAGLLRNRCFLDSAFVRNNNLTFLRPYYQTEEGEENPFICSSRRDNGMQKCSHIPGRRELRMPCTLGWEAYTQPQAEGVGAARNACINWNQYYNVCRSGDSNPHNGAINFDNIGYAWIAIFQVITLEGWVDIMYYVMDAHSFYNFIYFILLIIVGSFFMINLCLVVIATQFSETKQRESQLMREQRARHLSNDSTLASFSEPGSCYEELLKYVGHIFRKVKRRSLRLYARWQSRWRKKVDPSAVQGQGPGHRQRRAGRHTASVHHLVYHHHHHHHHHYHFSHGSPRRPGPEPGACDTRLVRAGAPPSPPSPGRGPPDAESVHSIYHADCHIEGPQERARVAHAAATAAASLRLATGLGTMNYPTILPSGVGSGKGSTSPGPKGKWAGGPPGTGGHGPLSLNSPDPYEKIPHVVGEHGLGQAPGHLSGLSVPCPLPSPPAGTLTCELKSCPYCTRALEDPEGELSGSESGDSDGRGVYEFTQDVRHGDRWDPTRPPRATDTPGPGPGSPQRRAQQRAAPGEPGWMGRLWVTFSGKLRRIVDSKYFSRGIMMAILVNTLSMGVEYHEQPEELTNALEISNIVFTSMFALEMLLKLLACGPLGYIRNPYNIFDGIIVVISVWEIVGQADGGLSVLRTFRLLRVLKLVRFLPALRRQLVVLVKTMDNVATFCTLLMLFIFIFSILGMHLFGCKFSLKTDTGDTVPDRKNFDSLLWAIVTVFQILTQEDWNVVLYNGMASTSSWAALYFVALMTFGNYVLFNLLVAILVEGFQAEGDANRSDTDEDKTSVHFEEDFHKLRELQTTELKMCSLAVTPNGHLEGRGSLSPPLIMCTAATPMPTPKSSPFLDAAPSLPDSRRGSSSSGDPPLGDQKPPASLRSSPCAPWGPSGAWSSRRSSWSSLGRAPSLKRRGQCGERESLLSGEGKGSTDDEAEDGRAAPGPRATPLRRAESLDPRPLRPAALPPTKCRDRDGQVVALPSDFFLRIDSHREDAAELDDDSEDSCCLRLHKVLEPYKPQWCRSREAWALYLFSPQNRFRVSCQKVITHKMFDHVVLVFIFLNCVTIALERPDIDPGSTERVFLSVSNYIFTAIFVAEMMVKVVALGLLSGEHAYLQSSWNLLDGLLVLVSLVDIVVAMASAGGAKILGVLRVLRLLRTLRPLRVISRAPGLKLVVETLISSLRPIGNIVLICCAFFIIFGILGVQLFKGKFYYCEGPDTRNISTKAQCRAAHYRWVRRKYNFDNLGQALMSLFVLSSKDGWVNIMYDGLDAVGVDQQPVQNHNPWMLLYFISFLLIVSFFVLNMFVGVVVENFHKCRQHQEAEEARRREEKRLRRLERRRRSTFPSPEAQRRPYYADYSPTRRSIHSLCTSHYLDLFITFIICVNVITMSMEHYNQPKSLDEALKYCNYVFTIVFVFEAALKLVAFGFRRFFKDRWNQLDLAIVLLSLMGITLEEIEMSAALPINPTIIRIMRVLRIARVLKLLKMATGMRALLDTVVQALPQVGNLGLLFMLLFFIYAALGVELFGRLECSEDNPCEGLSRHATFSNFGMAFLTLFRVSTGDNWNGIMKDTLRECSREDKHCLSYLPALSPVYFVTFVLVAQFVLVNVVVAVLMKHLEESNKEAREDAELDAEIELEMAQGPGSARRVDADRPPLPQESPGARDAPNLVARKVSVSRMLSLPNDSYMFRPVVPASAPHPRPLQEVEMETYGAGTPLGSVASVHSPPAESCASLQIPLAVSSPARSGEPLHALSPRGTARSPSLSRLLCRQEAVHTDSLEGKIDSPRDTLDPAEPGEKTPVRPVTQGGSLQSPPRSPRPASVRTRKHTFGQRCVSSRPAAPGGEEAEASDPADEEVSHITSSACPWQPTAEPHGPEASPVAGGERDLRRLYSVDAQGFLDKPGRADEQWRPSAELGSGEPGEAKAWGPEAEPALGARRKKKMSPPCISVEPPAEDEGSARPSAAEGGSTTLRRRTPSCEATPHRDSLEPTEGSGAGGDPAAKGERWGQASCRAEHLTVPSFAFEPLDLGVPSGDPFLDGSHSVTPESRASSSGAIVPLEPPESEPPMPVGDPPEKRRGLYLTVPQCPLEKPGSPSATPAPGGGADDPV
Description: as §1, §2

[11] = system: rats; test: ALGOGram: Bennett model of peripheral mononeuropathy (paw pressure test); assay type: in vivo, rat; conditions: 0.4 μg/μl i.t., 120 min after treatment
Description: as §3, §4

[12] = system: rats; test: ALGOGram: formalin test (paw licking time); assay type: in vivo, rat; conditions: 0.4 μg/μl i.t., 120 min after treatment
Description: as §3, §4

[13] = system: rats; test: ALGOGram: TNBS-induced visceral hypersensitivity (colonic distension); assay type: in vivo, rat; conditions: 0.4 μg/μl i.t., 120 min after treatment
Description: as §3, §4

[14] = molecular target: influenza virus polymerase PA-PB1 protein-protein interactions (Influenza A virus, UniProt P03433); conditions: previously tested [93]; cited from earlier work
[15] = system: rats; conditions: oxaliplatin, paw immersion test, 100 mg/kg p.o., T60 min; cited from earlier work
[16] = system: rats; conditions: kaolin, gait score, 30 mg/kg p.o., T60 min; cited from earlier work
[17] = system: rats; conditions: carrageenan, paw pressure test, 30 mg/kg p.o., T60 min; cited from earlier work
[18] = system: healthy rats; conditions: paw pressure test, 4 mg/kg s.c., T30 min; cited from earlier work
[19] = system: rats; conditions: formalin test, 4 mg/kg s.c., T30 min, cited from earlier work
[20] = system: healthy rats; conditions: tail flick test, 4 mg/kg s.c., T30 min; cited from earlier work
[21] = system: rats; conditions: Brennan model, electronic Von Frey test, 4 mg/kg s.c., T30 min; cited from earlier work

O=C(Nc1cccc([C@H](c2nnnn2Cc2ccccc2)N2CCN(C(=O)c3ccco3)CC2)c1)c1ccc(Br)cc1 [1-159-2-R]
Ca2+ influx triggered with 90 mM KCl (response, normalized) [1]: 67.37±2.294%

Cc1ccc([C@H](c2nnnn2Cc2ccccc2)N2CCN(C(=O)c3ccccc3)CC2)s1 [3-14-3-S]
effect on CaV3.3 mediated currents [2]: inhibited
IC50 ([2]; depolarizing voltage of −10 mV): 26.3 µM
Activation V1/2 [3]: 4.083 ± 2.038 mV
Activation k (slope factor) [3]: 9.308 ± 1.780
Inactivation V1/2 [3]: −25.246 ± 2.129 mV
Inactivation k (slope factor) [3]: −12.570 ± 2.035
peak calcium current density [3]: −41.70±7.927 pA/pF
reduction in Ca2+ currents at peak current density [3]: ~56.97%
Percentage of activity vs. vehicle [4]: 6%
Percentage of activity vs. vehicle [5]: 29%
Percentage of activity vs. vehicle [6]: 33%
effect on CaV3.1 mediated currents [7]: inhibited
IC50 ([7]; depolarizing voltage of −10 mV): 23 µM
Percentage of activity vs. vehicle [8]: 5%
Percentage of activity vs. vehicle [9]: 3%
effect on CaV3.2 mediated currents [10]: inhibited
IC50 ([10]; depolarizing voltage of −10 mV): 35.6 µM
Ca2+ influx triggered with 90 mM KCl (response, normalized) [1]: 87.25±2.245%
Percentage of activity vs. vehicle [11]: 14%
Percentage of activity vs. vehicle ([12]; paw licking time early phase): 16%
Percentage of activity vs. vehicle ([12]; paw licking time late phase): 36%
Percentage of activity vs. vehicle [13]: −11%

Cc1cccc(C)c1-n1nnnc1[C@@H](Cc1ccccc1)N1CCN(S(=O)(=O)c2ccccc2)CC1 [3-25-R]
effect on CaV3.3 mediated currents [2]: negligible effects
Activation V1/2 [3]: 2.383 ± 2.037 mV
Activation k (slope factor) [3]: 9.659 ± 1.798
Inactivation V1/2 [3]: −26.709 ± 2.655 mV
Inactivation k (slope factor) [3]: −15.208 ± 2.714
peak calcium current density [3]: −54.1±8.385 pA/pF
reduction in Ca2+ currents at peak current density [3]: ~44.17%
effect on CaV3.1 mediated currents [7]: negligible effects
effect on CaV3.2 mediated currents [10]: negligible effects
Ca2+ influx triggered with 90 mM KCl (response, normalized) [1]: 62.43±1.967%

C[C@@H](c1ccccc1)n1nnnc1[C@H](c1ccsc1)N1CCC(n2c(=O)[nH]c3ccccc32)CC1 [5bl, 1-{1-[(S)-{1-[(1S)-1-phenylethyl]-1H-1,2,3,4-tetrazol-5-yl}(thiophen-3-yl)methyl]piperidin-4-yl}-2,3-dihydro-1H-1,3-benzodiazol-2-one]
inhibition of influenza virus polymerase PA-PB1 protein-protein interactions [14]: active

CNCC[C@H](Oc1cccc2ccccc12)c1cccs1 [Duloxetine]
Percentage of activity vs. vehicle, internal reference [15]: 66%

COc1ccc2c(c1)c(CC(=O)O)c(C)n2C(=O)c1ccc(Cl)cc1 [Indomethacin]
Percentage of activity vs. vehicle, internal reference [16]: 64%
Percentage of activity vs. vehicle, internal reference [17]: 92%

CN1CC[C@]23c4c5ccc(O)c4O[C@H]2[C@@H](O)C=C[C@H]3[C@H]1C5 [Morphine]
Percentage of activity vs. vehicle, internal reference [18]: 67%
Percentage of activity vs. vehicle, internal reference ([19]; early phase): 65%
Percentage of activity vs. vehicle, internal reference ([19]; late phase): 77%
Percentage of activity vs. vehicle, internal reference [20]: 66%
Percentage of activity vs. vehicle, internal reference [21]: 107%
